Source: patent publication US20220211681A1, “COMPOSITIONS AND METHODS FOR PREVENTING INFLAMMATORY CONDITIONS” (Trustees of Tufts College, priority 2019, published 2022)

Key:
[1] = tested on: PI3K; test: Western blot of p-PI3K/PI3K in colonic mucosa; assay type: in vivo, FVB mice
Description: (§1) Each lane contained colonic mucosa collected from two individual mice that were pooled for immunoblot analysis (n=6). Data are representative of two independent experiments. Band intensity was normalized to Lamin B1 (nuclear fraction) or β-actin (whole tissue lysate) and measured by Quantity One 1-D Analysis Software (Bio-Rad). Data are shown as the mean±SE. Multiple comparisons with Hochberg method were employed to control the False Discovery Rate. Different superscript letters in the bar charts indicate significant differences (p<0.05) by one-way analysis of variance (ANOVA) with Tukey's test.
(§2) Western blot analyses: The nuclear and cytoplasmic fractions were prepared using the Nuclear Extraction Kit (Abeam) according to the manufacturer's instructions and subjected to Western blot analysis. Protein concentrations were determined using the BCA method. Briefly, equal amount of proteins (50 μg) were resolved over 4-12% SDS-polyacrylamide gel electrophoresis and transferred to nitrocellulose membranes. […] Band intensity was normalized to Lamin B1 (nuclear fraction) and measured by Quantity One 1-D Analysis Software (Bio-Rad, Hercules, Calif., USA).

[2] = tested on: calprotectin; test: Fecal calprotectin by Mouse S100A8/S100A9 Heterodimer DuoSet ELISA; assay type: in vivo, FVB mice; conditions: vs obese control
Description: (§3) Frozen fecal samples obtained in the colon upon euthanasia and then measured by Mouse S100A8/S100A9 Heterodimer DuoSet ELISA according to manufacturer's instructions (R&D Systems, Minneapolis, Minn.) and normalized by protein concentrations. Data are shown as the mean±SE, Different superscript letters in the bar charts indicate significant differences (p<0.05) by one-way analysis of variance (ANOVA) with Tukey's test.
(§4) Determination of pro-inflammatory cytokines in plasma and calprotectin in feces: Plasma samples were then used for determination IL-1β, IL-6, and TNT-α concentrations by V-PLEX Proinflammatory Panel 1 (mouse) Kit on a chemiluminescence platform (MesoScale Discovery (MSD), Rockville, Md., USA) according to the manufacturer's instructions. For fecal calprotectin measures, frozen fecal samples obtained in the colon upon euthanasia were lysed in ice-cold PBS containing 1% BSA, 0.05% Tween20 and protease inhibitor. Protein concentrations were determined using the BCA method. Fecal calprotectin levels were measured by Mouse S100A8/S100A9 Heterodimer DuoSet ELISA according to manufacturer's instructions (R&D Systems, Minneapolis, Minn.) and normalized by protein concentrations.

[3] = tested on: colonic tumors; test: Colonic tumorigenesis in HFD-fed, AOM-treated FVB mice; assay type: in vivo
Description: Animals, diet and dosage information: The animal protocol was approved by the Institutional Animal Care and Use Committee of Tufts University (42015-155). Male FVB mice (4 weeks old) were obtained from the Jackson Laboratory (Bar Harbor, Me., USA), and were given free access to food (AIN-93G) and water for one week. The high-fat diet (HFD, D12450B) and low-fat diet (LFD, D12492) contained 60% and 10% of their calories as lard, respectively (Research Diets, diet details: Supplementary Tables 1, 2). […] One week after the sixth AOM injection, mice were randomized to receive 1 of 5 experimental diets: 1) LFD control, 2) […], 3) HFD containing 0.2% CUR (wt %), […], as pyridoxine HO), and 5) HFD containing both agents […]. There were 21 mice in each group. Body composition was determined by Echo-900 MRI (Houston, Tex., USA) at 21 weeks after arrival. All mice were sacrificed by isoflurane asphyxiation at 22 weeks after arrival. The liver and spleen were collected and weighed.
The dose of CUR (0.2 wt %) used in this study is equivalent to approximately 1 g/day for human dietary intake in a 60 kg adult based on equivalent surface area dosage conversion method^(30). The dose of B6 used is at 4-times the basal requirement (supplemented level) for mice. […] The colons were excised, opened longitudinally, rinsed with ice cold PBS containing protease and phosphatase inhibitors (pH 7.4) and carefully inspected under a dissection microscope. The number and size of tumors in the colons were recorded. The sizes of tumors were determined by the following formula: tumor volume (mm^3)=L×W×[(L+W)/2], where L is the length and W is the width of the tumors. Tumors and one 2-3 mm length piece of mid-colon from each mouse were fixed in 10% buffered formalin (pH 7.4) for 24 h for further histopathologic and immunohistochemical (IHC) analysis. The opened colon, spread out on a glass plate sitting atop crushed ice, was then gently scraped using glass microscope slides and the mucosa thus obtained was stored at −80° C. for future analyses. The pathology of the colonic tumors was characterized by a rodent histopathologist at the Harvard Rodent Histopathology Core (Boston, Mass., USA) who was blinded to the diet groups, and the tumors were graded as either non-neoplastic, adenomas or invasive cancers. The tumor data reported below includes only those confirmed to be either adenomas or cancers.
Statistical analyses: Data are presented as means±standard error (SE) for the indicated number of independently performed experiments. All statistical analyses were performed using SAS Version 9.3 (SAS Institute, Cary, N.C., USA). […] The tumor incidence was statistically calculated using the chi-square test. […]

[4] = tested on: IL-6; test: Plasma IL-6 by V-PLEX Proinflammatory Panel 1 (mouse) Kit; assay type: in vivo, FVB mice; conditions: vs obese control; combination p=0.07
Description: as §3, §4

[5] = tested on: β-catenin; test: Western blot of nuclear β-catenin in colonic mucosa (Wnt signaling); assay type: in vivo, FVB mice; conditions: colonic mucosa nuclear fraction, p<0.03
Description: as §1, §2

With Cc1ncc(CO)c(CO)c1O.Cl [B6, pyridoxine hydrochloride] the “Suppression of PI3K activation (in words)” value [1] was “did not cause a significant suppression”, the “Suppression of fecal calprotectin (in words)” value [2] was “did not cause a significant suppression” and the Tumor incidence ([3]; HFD-fed, AOM-treated FVB mice, agent in diet) was 59%. The “Tumor multiplicity (Tumors per mouse)” value ([3]; HFD-fed, AOM-treated FVB mice, agent in diet (CUR 0.2% w/w, B6 24 mg/kg), mean ± SE) was 0.95 ± 0.22^ab, the “Tumor burden (Total volume of tumors per mouse, mm^3)” value ([3]; HFD-fed, AOM-treated FVB mice, agent in diet, mean ± SE) was 17.19 ± 7.38^ab mm^3 and the “Suppression of colorectal tumorigenesis (in words)” value ([3]; vs HFD obese control) was “neither CUR nor B6 alone was sufficient to suppress colorectal tumorigenesis”. The “Plasma IL-6 level (in words)” value [4] was “non-significant reduction” and the “Level of nuclear β-catenin in comparison to the obese control (in words)” value [5] was “reduced level of nuclear β-catenin”.
